Assay results as given in PubChem BioAssay (NCI).
Where “and” joins values, the source holds several entries; their conditions need not be identical. Equal entries are not always repeated.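 Values below derive from 48-hour exposures of cells grown in 96-well plates, with endpoints linearly interpolated between the two concentrations bracketing the appropriate inhibition level. At the GI50, growth is halved. TGI is the concentration that stops growth completely.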

What was measured:
Assay in all cases: inhibition of tumour cell growth, NCI panel, 48 h
SF-295 CNS = test system: SF-295 CNS
UO-31 renal = test system: UO-31 renal
NCI-H23 lung = test system: NCI-H23 lung
OVCAR-3 ovarian = test system: OVCAR-3 ovarian
SNB-75 CNS = test system: SNB-75 CNS
HT29 colon = test system: HT29 colon
PC-3 prostate = test system: PC-3 prostate
UACC-62 melanoma = test system: UACC-62 melanoma
HCT-15 colon = test system: HCT-15 colon
HCC-2998 colon = test system: HCC-2998 colon
T-47D breast = test system: T-47D breast

| Compound | TGI (SF-295 CNS) | TGI (UO-31 renal) | TGI (NCI-H23 lung) | TGI (OVCAR-3 ovarian) | TGI (SNB-75 CNS) | TGI (HT29 colon) | TGI (PC-3 prostate) | TGI (UACC-62 melanoma) | TGI (HCT-15 colon) | TGI (HCC-2998 colon) | TGI (T-47D breast) | GI50 (HCC-2998 colon) | GI50 (OVCAR-3 ovarian) | GI50 (UACC-62 melanoma) |
| --- | --- | --- | --- | --- | --- | --- | --- | --- | --- | --- | --- | --- | --- | --- |
| CSC1=N/C(=C\c2ccco2)C(=O)N1CN1CCCCC1 | > 100 µM | > 100 µM | > 100 µM | > 100 µM | > 100 µM | > 100 µM | > 100 µM | > 100 µM | > 100 µM | – | – | – | – | – |
| COc1cc(C2c3cc4c(cc3OC(Nc3ccccc3)C2C)OCO4)cc(OC)c1OC (stereo unspecified) | 3.52 µM | > 100 µM | > 100 µM | – | 99.2 µM | > 100 µM | > 100 µM | > 100 µM | > 21.6 µM | > 26.6 µM | > 100 µM | – | – | – |
| O=C(O)c1ccccc1C(=O)Nn1cnnc1 | > 100 µM | > 100 µM | > 100 µM | > 100 µM | > 100 µM | > 100 µM | > 100 µM | > 100 µM | > 100 µM | > 100 µM | – | – | – | – |
| N#Cc1sc2c(c1OC(=O)c1cccs1)c(=O)n(-c1ccccc1)c(=S)n2-c1ccccc1 | 55.8 µM | 32.7 µM | 93.5 µM | > 100 µM | > 100 µM | > 100 µM | 64.6 µM | 35.2 µM | 40 µM | – | 34.1 µM | – | – | – |
| COC(=O)C1=Cc2cc(OC)c(O)cc2[C@@H](c2ccc(O)c(OC)c2)[C@@H]1C(=O)OC | > 100 µM | > 100 µM | > 100 µM | > 100 µM | > 100 µM | > 100 µM | > 100 µM | – | > 100 µM | > 100 µM | > 100 µM | – | – | – |
| CCOC(=O)c1c(-c2ccc(O)c(OC)c2)c(C#N)c(=S)n(C2OC(COC(C)=O)C(OC(C)=O)C(OC(C)=O)C2OC(C)=O)c1-c1ccccc1 (stereo unspecified) | > 100 µM | > 100 µM | > 100 µM | 48.4 µM and > 100 µM | – | > 100 µM | > 100 µM | > 100 µM | > 100 µM | > 100 µM | – | 35 µM and 90.1 µM | 21.6 µM and 56.8 µM | 45.4 µM and > 100 µM |
| O=c1[nH]nc(Cc2ccccc2)n1/N=C/c1ccccc1Cl | > 100 µM | > 100 µM | > 100 µM | > 100 µM | – | > 100 µM | > 100 µM | > 100 µM | > 100 µM | > 100 µM | > 100 µM | – | – | – |
| CC/C=C/C(=O)CC(O)(C(F)(F)F)C(F)(F)F | > 100 µM | > 100 µM | > 100 µM | – | > 100 µM | > 100 µM | – | > 100 µM | > 100 µM | > 100 µM | > 100 µM | – | – | – |
| CN(C(=O)Cc1ccc(Cl)c(Cl)c1)[C@@H]1CCCC[C@H]1[N+]1(C)CC=CC1 | > 100 µM | > 100 µM | > 100 µM | > 100 µM | – | > 100 µM | > 100 µM | > 100 µM | > 100 µM | > 100 µM | > 100 µM | – | – | – |
| N#CC(Nc1ccccc1)c1ccc(C(C#N)Nc2ccccc2)cc1 (stereo unspecified) | > 100 µM | > 100 µM | > 100 µM | > 100 µM | – | 80.9 µM | > 100 µM | > 100 µM | > 100 µM | > 100 µM | > 100 µM | – | – | – |
| O=C(c1ccco1)N(C(=S)N1CCN(c2ccccn2)CC1)C1CCCCC1 | > 100 µM | > 100 µM | > 100 µM | > 100 µM | > 100 µM | > 100 µM | – | > 100 µM | > 100 µM | – | – | – | – | – |
| CNn1c(C)n[nH]c1=O | > 100 µM | > 100 µM | > 100 µM | > 100 µM | 85.1 µM | – | > 100 µM | > 100 µM | > 100 µM | > 100 µM | > 100 µM | – | – | – |
| O=C1c2ccccc2-c2ccc(N=Nc3c(O)ccc4ccccc34)cc21 | > 100 µM | > 100 µM | > 100 µM | > 100 µM | > 100 µM | > 100 µM | > 100 µM | > 100 µM | > 100 µM | – | > 100 µM | – | – | – |
| Cc1nn(-c2ccccc2)c2[nH]c(=S)cnc12 | > 100 µM | > 100 µM | > 100 µM | > 100 µM | – | > 100 µM | > 100 µM | > 100 µM | – | – | > 100 µM | – | – | – |
| O=c1cc(CBr)c2ccc(O)cc2o1 | > 100 µM | > 100 µM | > 100 µM | > 100 µM | > 100 µM | > 100 µM | > 100 µM | > 100 µM | > 100 µM | > 100 µM | – | – | – | – |
| CCOC(=O)[C@@H]1ON2O[C@H](OC3CCCC3(c3ccccc3)c3ccccc3)C[C@H]3OC(=O)[C@@H]1C32 (stereo partly specified) | > 100 µM | > 100 µM | 65.8 µM | > 100 µM | > 100 µM | > 100 µM | – | > 100 µM | > 100 µM | > 100 µM | 80 µM | – | – | – |
